Measurements from patent US7118895B2, “Process for producing aglycon by using diglycosidase and flavor-improved food containing the aglycon and converting agent to be used in the process” (Amano Enzyme Inc., priority 2000, dated 2006).

Test system: Crude diglycosidase
Assay: Examination of pH in the conversion into isoflavone aglycons by diglycosidase using soybean materials
Type: biochemical, Penicillium multicolor IAM7153
Set-up: Decomposition efficiency of genistin family in soymilk / Decomposition efficiency of genistin family in defatted soybean / Decomposition efficiency of daidzin family in defatted soybean: concentration or dose not given beside the values
Conditions: for Decomposition efficiency of daidzin family in roasted soy flour: 55° C.
In short: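 HPLC readout: isoflavone glycosides vs aglycons. Substrates: 50 mg soy material (roasted flour, soymilk, defatted bean, concentrated protein), pH 2–11 (HCl/NaOH). Crude diglycosidase solution 1.88 AU/mL, matched pH; 55° C; quenched with ethanol at 0/1/3/6 h; centrifuged 15,000 rpm, 4° C, 10 min.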

[1] = pH4.8, heat treatment of enzyme: no, reaction time 0 h
[2] = pH4.8, heat treatment of enzyme: no, reaction time 1 h
[3] = pH4.8, heat treatment of enzyme: no, reaction time 3 h
[4] = pH4.8, heat treatment of enzyme: no, reaction time 6 h
[5] = pH4.8, heat treatment of enzyme: yes, reaction time 6 h
[6] = pH6.6, heat treatment of enzyme: no, reaction time 0 h
[7] = pH6.6, heat treatment of enzyme: no, reaction time 1 h
[8] = pH6.6, heat treatment of enzyme: no, reaction time 3 h
[9] = pH6.6, heat treatment of enzyme: no, reaction time 6 h
[10] = pH6.6, heat treatment of enzyme: yes, reaction time 6 h

Decomposition efficiency of daidzin family in concentrated soybean protein (pH1.6, heat treatment of enzyme: no, reaction time 0 h): 3.0%
Decomposition efficiency of daidzin family in concentrated soybean protein (pH1.6, heat treatment of enzyme: no, reaction time 1 h): 3.3%
Decomposition efficiency of daidzin family in concentrated soybean protein (pH1.6, heat treatment of enzyme: no, reaction time 3 h): 3.3%
Decomposition efficiency of daidzin family in concentrated soybean protein (pH1.6, heat treatment of enzyme: no, reaction time 6 h): 3.4%
Decomposition efficiency of daidzin family in concentrated soybean protein (pH1.6, heat treatment of enzyme: yes, reaction time 6 h): 2.9%
Decomposition efficiency of daidzin family in roasted soy flour (pH2, heat treatment of enzyme no, reaction time 0 h): 3.5
Decomposition efficiency of daidzin family in roasted soy flour (pH2, heat treatment of enzyme no, reaction time 1 h): 5.4
Decomposition efficiency of daidzin family in roasted soy flour (pH2, heat treatment of enzyme no, reaction time 3 h): 4.8
Decomposition efficiency of daidzin family in roasted soy flour (pH2, heat treatment of enzyme no, reaction time 6 h): 4.5
Decomposition efficiency of daidzin family in roasted soy flour (pH2, heat treatment of enzyme yes, reaction time 6 h): 3.8
Decomposition efficiency of daidzin family in soymilk (pH2.3, heat treatment of enzyme: no, reaction time 0 h): 10.5%
Decomposition efficiency of daidzin family in soymilk (pH2.3, heat treatment of enzyme: no, reaction time 1 h): 45.3%
Decomposition efficiency of daidzin family in soymilk (pH2.3, heat treatment of enzyme: no, reaction time 3 h): 48.9%
Decomposition efficiency of daidzin family in soymilk (pH2.3, heat treatment of enzyme: no, reaction time 6 h): 51.5%
Decomposition efficiency of daidzin family in soymilk (pH2.3, heat treatment of enzyme: yes, reaction time 6 h): 10.2%
Decomposition efficiency of daidzin family in defatted soybean (pH2.6, heat treatment of enzyme: no, reaction time 0 h): 13.2%
Decomposition efficiency of daidzin family in defatted soybean (pH2.6, heat treatment of enzyme: no, reaction time 1 h): 21.3%
Decomposition efficiency of daidzin family in defatted soybean (pH2.6, heat treatment of enzyme: no, reaction time 3 h): 40.9%
Decomposition efficiency of daidzin family in defatted soybean (pH2.6, heat treatment of enzyme: no, reaction time 6 h): 42.9%
Decomposition efficiency of daidzin family in defatted soybean (pH2.6, heat treatment of enzyme: yes, reaction time 6 h): 13.0%
Decomposition efficiency of daidzin family in concentrated soybean protein (pH2.7, heat treatment of enzyme: no, reaction time 0 h): 3.0%
Decomposition efficiency of daidzin family in concentrated soybean protein (pH2.7, heat treatment of enzyme: no, reaction time 1 h): 40.7%
Decomposition efficiency of daidzin family in concentrated soybean protein (pH2.7, heat treatment of enzyme: no, reaction time 3 h): 41.6%
Decomposition efficiency of daidzin family in concentrated soybean protein (pH2.7, heat treatment of enzyme: no, reaction time 6 h): 45.0%
Decomposition efficiency of daidzin family in concentrated soybean protein (pH2.7, heat treatment of enzyme: yes, reaction time 6 h): 3.2%
Decomposition efficiency of daidzin family in roasted soy flour (pH3, heat treatment of enzyme no, reaction time 0 h): 3.5
Decomposition efficiency of daidzin family in roasted soy flour (pH3, heat treatment of enzyme no, reaction time 1 h): 54.0
Decomposition efficiency of daidzin family in roasted soy flour (pH3, heat treatment of enzyme no, reaction time 3 h): 60.4
Decomposition efficiency of daidzin family in roasted soy flour (pH3, heat treatment of enzyme no, reaction time 6 h): 59.3
Decomposition efficiency of daidzin family in roasted soy flour (pH3, heat treatment of enzyme yes, reaction time 6 h): 3.7
Decomposition efficiency of daidzin family in defatted soybean (pH3.4, heat treatment of enzyme: no, reaction time 0 h): 13.2%
Decomposition efficiency of daidzin family in defatted soybean (pH3.4, heat treatment of enzyme: no, reaction time 1 h): 60.6%
Decomposition efficiency of daidzin family in defatted soybean (pH3.4, heat treatment of enzyme: no, reaction time 3 h): 65.5%
Decomposition efficiency of daidzin family in defatted soybean (pH3.4, heat treatment of enzyme: no, reaction time 6 h): 71.0%
Decomposition efficiency of daidzin family in defatted soybean (pH3.4, heat treatment of enzyme: yes, reaction time 6 h): 15.1%
Decomposition efficiency of daidzin family in soymilk (pH3.5, heat treatment of enzyme: no, reaction time 0 h): 10.5%
Decomposition efficiency of daidzin family in soymilk (pH3.5, heat treatment of enzyme: no, reaction time 1 h): 64.4%
Decomposition efficiency of daidzin family in soymilk (pH3.5, heat treatment of enzyme: no, reaction time 3 h): 84.9%
Decomposition efficiency of daidzin family in soymilk (pH3.5, heat treatment of enzyme: no, reaction time 6 h): 92.6%
Decomposition efficiency of daidzin family in soymilk (pH3.5, heat treatment of enzyme: yes, reaction time 6 h): 10.6%
Decomposition efficiency of daidzin family in concentrated soybean protein (pH3.7, heat treatment of enzyme: no, reaction time 0 h): 3.0%
Decomposition efficiency of daidzin family in concentrated soybean protein (pH3.7, heat treatment of enzyme: no, reaction time 1 h): 58.4%
Decomposition efficiency of daidzin family in concentrated soybean protein (pH3.7, heat treatment of enzyme: no, reaction time 3 h): 67.0%
Decomposition efficiency of daidzin family in concentrated soybean protein (pH3.7, heat treatment of enzyme: no, reaction time 6 h): 74.8%
Decomposition efficiency of daidzin family in concentrated soybean protein (pH3.7, heat treatment of enzyme: yes, reaction time 6 h): 3.1%
Decomposition efficiency of daidzin family in roasted soy flour (pH4, heat treatment of enzyme no, reaction time 0 h): 3.5
Decomposition efficiency of daidzin family in roasted soy flour (pH4, heat treatment of enzyme no, reaction time 1 h): 65.6
Decomposition efficiency of daidzin family in roasted soy flour (pH4, heat treatment of enzyme no, reaction time 3 h): 79.5
Decomposition efficiency of daidzin family in roasted soy flour (pH4, heat treatment of enzyme no, reaction time 6 h): 88.9
Decomposition efficiency of daidzin family in roasted soy flour (pH4, heat treatment of enzyme yes, reaction time 6 h): 3.5
Decomposition efficiency of daidzin family in defatted soybean [1]: 15.7%
Decomposition efficiency of daidzin family in soymilk [1]: 9.0%
Decomposition efficiency of daidzin family in defatted soybean [2]: 59.5%
Decomposition efficiency of daidzin family in soymilk [2]: 52.6%
Decomposition efficiency of daidzin family in defatted soybean [3]: 63.3%
Decomposition efficiency of daidzin family in soymilk [3]: 66.1%
Decomposition efficiency of daidzin family in defatted soybean [4]: 69.5%
Decomposition efficiency of daidzin family in soymilk [4]: 79.7%
Decomposition efficiency of daidzin family in defatted soybean [5]: 24.5%
Decomposition efficiency of daidzin family in soymilk [5]: 9.1%
Decomposition efficiency of daidzin family in roasted soy flour (pH5, heat treatment of enzyme no, reaction time 0 h): 3.5
Decomposition efficiency of daidzin family in roasted soy flour (pH5, heat treatment of enzyme no, reaction time 1 h): 61.5
Decomposition efficiency of daidzin family in roasted soy flour (pH5, heat treatment of enzyme no, reaction time 3 h): 75.3
Decomposition efficiency of daidzin family in roasted soy flour (pH5, heat treatment of enzyme no, reaction time 6 h): 84.8
Decomposition efficiency of daidzin family in roasted soy flour (pH5, heat treatment of enzyme yes, reaction time 6 h): 4.4
Decomposition efficiency of daidzin family in concentrated soybean protein (pH5.1, heat treatment of enzyme: no, reaction time 0 h): 3.0%
Decomposition efficiency of daidzin family in concentrated soybean protein (pH5.1, heat treatment of enzyme: no, reaction time 1 h): 56.6%
Decomposition efficiency of daidzin family in concentrated soybean protein (pH5.1, heat treatment of enzyme: no, reaction time 3 h): 63.0%
Decomposition efficiency of daidzin family in concentrated soybean protein (pH5.1, heat treatment of enzyme: no, reaction time 6 h): 68.8%
Decomposition efficiency of daidzin family in concentrated soybean protein (pH5.1, heat treatment of enzyme: yes, reaction time 6 h): 3.2%
Decomposition efficiency of daidzin family in defatted soybean (pH5.4, heat treatment of enzyme: no, reaction time 0 h): 15.7%
Decomposition efficiency of daidzin family in defatted soybean (pH5.4, heat treatment of enzyme: no, reaction time 1 h): 55.8%
Decomposition efficiency of daidzin family in defatted soybean (pH5.4, heat treatment of enzyme: no, reaction time 3 h): 58.5%
Decomposition efficiency of daidzin family in defatted soybean (pH5.4, heat treatment of enzyme: no, reaction time 6 h): 63.1%
Decomposition efficiency of daidzin family in defatted soybean (pH5.4, heat treatment of enzyme: yes, reaction time 6 h): 55.1%
Decomposition efficiency of daidzin family in soymilk (pH6.2, heat treatment of enzyme: no, reaction time 0 h): 9.0%
Decomposition efficiency of daidzin family in soymilk (pH6.2, heat treatment of enzyme: no, reaction time 1 h): 45.9%
Decomposition efficiency of daidzin family in soymilk (pH6.2, heat treatment of enzyme: no, reaction time 3 h): 53.6%
Decomposition efficiency of daidzin family in soymilk (pH6.2, heat treatment of enzyme: no, reaction time 6 h): 58.1%
Decomposition efficiency of daidzin family in soymilk (pH6.2, heat treatment of enzyme: yes, reaction time 6 h): 9.7%
Decomposition efficiency of daidzin family in roasted soy flour (pH6.5, heat treatment of enzyme no, reaction time 0 h): 3.4
Decomposition efficiency of daidzin family in roasted soy flour (pH6.5, heat treatment of enzyme no, reaction time 1 h): 54.6
Decomposition efficiency of daidzin family in roasted soy flour (pH6.5, heat treatment of enzyme no, reaction time 3 h): 60.8
Decomposition efficiency of daidzin family in roasted soy flour (pH6.5, heat treatment of enzyme no, reaction time 6 h): 65.6
Decomposition efficiency of daidzin family in roasted soy flour (pH6.5, heat treatment of enzyme yes, reaction time 6 h): 4.7
Decomposition efficiency of daidzin family in concentrated soybean protein [6]: 3.0%
Decomposition efficiency of daidzin family in defatted soybean [6]: 13.2%
Decomposition efficiency of daidzin family in concentrated soybean protein [7]: 51.0%
Decomposition efficiency of daidzin family in defatted soybean [7]: 54.1%
Decomposition efficiency of daidzin family in concentrated soybean protein [8]: 57.1%
Decomposition efficiency of daidzin family in defatted soybean [8]: 56.0%
Decomposition efficiency of daidzin family in concentrated soybean protein [9]: 58.8%
Decomposition efficiency of daidzin family in defatted soybean [9]: 58.2%
Decomposition efficiency of daidzin family in concentrated soybean protein [10]: 3.2%
Decomposition efficiency of daidzin family in defatted soybean [10]: 49.5%
Decomposition efficiency of daidzin family in soymilk (pH7.2, heat treatment of enzyme: no, reaction time 0 h): 9.0%
Decomposition efficiency of daidzin family in soymilk (pH7.2, heat treatment of enzyme: no, reaction time 1 h): 43.6%
Decomposition efficiency of daidzin family in soymilk (pH7.2, heat treatment of enzyme: no, reaction time 3 h): 47.6%
Decomposition efficiency of daidzin family in soymilk (pH7.2, heat treatment of enzyme: no, reaction time 6 h): 51.8%
Decomposition efficiency of daidzin family in soymilk (pH7.2, heat treatment of enzyme: yes, reaction time 6 h): 10.2%
Decomposition efficiency of daidzin family in defatted soybean (pH7.8, heat treatment of enzyme: no, reaction time 0 h): 13.3%
Decomposition efficiency of daidzin family in defatted soybean (pH7.8, heat treatment of enzyme: no, reaction time 1 h): 43.1%
Decomposition efficiency of daidzin family in defatted soybean (pH7.8, heat treatment of enzyme: no, reaction time 3 h): 48.4%
Decomposition efficiency of daidzin family in defatted soybean (pH7.8, heat treatment of enzyme: no, reaction time 6 h): 51.9%
Decomposition efficiency of daidzin family in defatted soybean (pH7.8, heat treatment of enzyme: yes, reaction time 6 h): 21.7%
Decomposition efficiency of daidzin family in roasted soy flour (pH8.5, heat treatment of enzyme no, reaction time 0 h): 3.8
Decomposition efficiency of daidzin family in roasted soy flour (pH8.5, heat treatment of enzyme no, reaction time 1 h): 36.9
Decomposition efficiency of daidzin family in roasted soy flour (pH8.5, heat treatment of enzyme no, reaction time 3 h): 46.4
Decomposition efficiency of daidzin family in roasted soy flour (pH8.5, heat treatment of enzyme no, reaction time 6 h): 51.8
Decomposition efficiency of daidzin family in roasted soy flour (pH8.5, heat treatment of enzyme yes, reaction time 6 h): 3.9
Decomposition efficiency of daidzin family in concentrated soybean protein (pH8.6, heat treatment of enzyme: no, reaction time 0 h): 3.2%
Decomposition efficiency of daidzin family in concentrated soybean protein (pH8.6, heat treatment of enzyme: no, reaction time 1 h): 9.9%
Decomposition efficiency of daidzin family in concentrated soybean protein (pH8.6, heat treatment of enzyme: no, reaction time 3 h): 15.9%
Decomposition efficiency of daidzin family in concentrated soybean protein (pH8.6, heat treatment of enzyme: no, reaction time 6 h): 27.4%
Decomposition efficiency of daidzin family in concentrated soybean protein (pH8.6, heat treatment of enzyme: yes, reaction time 6 h): 3.2%
Decomposition efficiency of daidzin family in soymilk (pH11.6, heat treatment of enzyme: no, reaction time 0 h): 8.7%
Decomposition efficiency of daidzin family in soymilk (pH11.6, heat treatment of enzyme: no, reaction time 1 h): 43.6%
Decomposition efficiency of daidzin family in soymilk (pH11.6, heat treatment of enzyme: no, reaction time 3 h): 49.6%
Decomposition efficiency of daidzin family in soymilk (pH11.6, heat treatment of enzyme: no, reaction time 6 h): 52.3%
Decomposition efficiency of daidzin family in soymilk (pH11.6, heat treatment of enzyme: yes, reaction time 6 h): 9.3%
Structure (SMILES): O=c1c(-c2ccc(O)cc2)coc2cc(O)ccc12 [daidzein]
